Tests used:
Format in all cases: in vivo
[1] = tested on: Bemisia tabaci (Cotton White Fly); experiment: Activity against Bemisia tabaci (cotton white fly), cotton leaf discs sprayed; conditions: foliar, 144 h, application rate of 200 ppm, adult white flies, 6 days after incubation
Experimental: Cotton leaf discs were placed on agar in 24-well microtiter plates and sprayed with aqueous test solutions prepared from 10′000 ppm DMSO stock solutions. After drying the leaf discs were infested with adult white flies. The samples were checked for mortality 6 days after incubation.

[2] = tested on: Spodoptera littoralis (Egyptian Cotton Leaf Worm); experiment: Activity against Spodoptera littoralis (Egyptian cotton leaf worm), cotton leaf discs sprayed; conditions: foliar, 72 h, application rate of 200 ppm, L1 larvae, 3 days after infestation, read-out: control (mortality, anti-feeding effect, growth inhibition)
Experimental: Cotton leaf discs were placed onto agar in 24-well microtiter plates and sprayed with aqueous test solutions prepared from 10′000 ppm DMSO stock solutions. After drying the leaf discs were infested with five L1 larvae. The samples were assessed for mortality, anti-feeding effect, and growth inhibition in comparison to untreated samples 3 days after infestation. Control of Spodoptera littoralis by a test sample is given when at least one of the categories mortality, anti-feedant effect, and growth inhibition is higher than the untreated sample.

[3] = tested on: Myzus persicae (Green Peach Aphid); experiment: Activity against Myzus persicae (green peach aphid), feeding/contact activity; conditions: 144 h, application rate of 200 ppm, mixed ages, 6 days after infestation
Experimental: Sunflower leaf discs were placed onto agar in a 24-well microtiter plate and sprayed with aqueous test solutions prepared from 10′000 ppm DMSO stock solutions. After drying, the leaf discs were infested with an aphid population of mixed ages. The samples were assessed for mortality 6 days after infestation.

[4] = tested on: Carpocapsa (Cydia) Pomonella (Codling Moth); experiment: Activity against Carpocapsa (Cydia) pomonella (codling moth), larvicide, feeding/contact; conditions: 336 h, application rate of 12.5 ppm, L1 larvae, 14 days after infestation, read-out: effect in at least one of the two categories (mortality or growth inhibition)
Experimental: Diet cubes coated with paraffin were sprayed with diluted test solutions in an application chamber. After drying off the treated cubes (10 replicates) were infested with 1 L1 larvae. Samples were incubated at 26-27° C. and checked 14 days after infestation for mortality and growth inhibition. The following compounds gave an effect of at least 80% in at least one of the two categories (mortality or growth inhibition) at an application rate of 12.5 ppm: P1, P2, P3, P5, P9, P10, P11, P12, P14, P17, P19, P20, P21, P23, P24, P30, P31.

[5] = tested on: Nilaparvata lugens (Brown Plant Hopper); experiment: Activity against Nilaparvata lugens (brown plant hopper), larvicide, systemic into water; conditions: 168 h, application rate of 12.5 ppm, N3 nymphs, 7 days after infestation
Experimental: Larvicide, systemic into water Rice plants cultivated in a nutritive solution were treated with the diluted test solutions into nourishing cultivation system. 1 day after application plants were infested with ˜20 N3 nymphs. 7 days after infestation samples were assessed for mortality and growth regulation.

[6] = tested on: Euschistus heros (Neotropical Brown Stink Bug); experiment: Activity against Euschistus heros (neotropical brown stink bug), soybean leaves sprayed; conditions: 120 h, application rate of 200 ppm, N2 nymphs, 5 days after infestation, read-out: effect in at least one of the two categories (mortality or growth inhibition)
Experimental: Soybean leaves on agar in 24-well microtiter plates were sprayed with aqueous test solutions prepared from 10′000 ppm DMSO stock solutions. After drying the leaves were infested with N2 nymphs. The samples were assessed for mortality and growth inhibition in comparison to untreated samples 5 days after infestation.

[7] = tested on: Chilo suppressalis (Striped Rice Stemborer); experiment: Activity against Chilo suppressalis (striped rice stemborer), artificial diet; conditions: 144 h, application rate of 200 ppm, L2 larvae, 6 days after infestation, read-out: control (mortality, anti-feeding effect, growth inhibition)
Experimental: 24-well microtiter plates with artificial diet were treated with aqueous test solutions prepared from 10′000 ppm DMSO stock solutions by pipetting. After drying, the plates were infested with L2 larvae (6-8 per well). The samples were assessed for mortality, anti-feeding effect, and growth inhibition in comparison to untreated samples 6 days after infestation. Control of Chilo suppressalis by a test sample is given when at least one of the categories mortality, anti-feedant effect, and growth inhibition is higher than the untreated sample.

[8] = tested on: Myzus persicae (Green Peach Aphid); experiment: Activity against Myzus persicae (green peach aphid), systemic activity; conditions: 144 h, test rate of 24 ppm, pea seedling roots in test solution, 6 days
Experimental: Roots of pea seedlings infested with an aphid population of mixed ages were placed directly into aqueous test solutions prepared from 10′000 DMSO stock solutions. The samples were assessed for mortality 6 days after placing seedlings into test solutions.

[9] = tested on: Plutella xylostella (Diamond Back Moth); experiment: Activity against Plutella xylostella (diamond back moth), artificial diet; conditions: 192 h, application rate of 200 ppm, eggs, 8 days after infestation, read-out: effect in at least one of the two categories (mortality or growth inhibition)
Experimental: 24-well microtiter plates with artificial diet were treated with aqueous test solutions prepared from 10′000 ppm DMSO stock solutions by pipetting. After drying, Plutella eggs were pipetted through a plastic stencil onto a gel blotting paper and the plate was closed with it. The samples were assessed for mortality and growth inhibition in comparison to untreated samples 8 days after infestation.

[10] = tested on: Diabrotica Balteata (Corn Root Worm); experiment: Activity against Diabrotica balteata (corn root worm), maize sprouts sprayed; conditions: 96 h, application rate of 200 ppm, L2 larvae, 4 days after infestation, read-out: effect in at least one of the two categories (mortality or growth inhibition)
Experimental: Maize sprouts placed onto an agar layer in 24-well microtiter plates were treated with aqueous test solutions prepared from 10′000 ppm DMSO stock solutions by spraying. After drying, the plates were infested with L2 larvae (6 to 10 per well). The samples were assessed for mortality and growth inhibition in comparison to untreated samples 4 days after infestation.

[11] = tested on: Frankliniella occidentalis (Western Flower Thrips); experiment: Activity against Frankliniella occidentalis (western flower thrips), sunflower leaf discs sprayed; conditions: foliar, 168 h, application rate of 200 ppm, population of mixed ages, 7 days after infestation
Experimental: Sunflower leaf discs were placed on agar in 24-well microtiter plates and sprayed with aqueous test solutions prepared from […] stock solutions. After drying the leaf discs were infested with a Frankliniella population of mixed ages. The samples were assessed for mortality 7 days after infestation.

[12] = tested on: Tetranychus urticae (Two-Spotted Spider Mite); experiment: Activity against Tetranychus urticae (two-spotted spider mite), bean leaf discs sprayed; conditions: foliar, 192 h
Experimental: Bean leaf discs on agar in 24-well microtiter plates were sprayed with aqueous test solutions prepared from 10′000 ppm DMSO stock solutions. After drying the leaf discs were infested with a mite population of mixed ages. The samples were assessed for mortality on mixed population (mobile stages) 8 days after infestation.

CCS(=O)(=O)c1cc(C2(C#N)CC2)cnc1-c1cc2c(cn1)N(CC(F)(F)C(F)(F)F)C(=O)CC2 [P12, 1-[5-ethylsulfonyl-6-[2-oxo-1-(2,2,3,3,3-pentafluoropropyl)-3,4-dihydro-1,7-naphthyridin-6-yl]-3-pyridyl]cyclopropanecarbonitrile]
≥ 80%: mortality at 200 ppm [1] | mortality at 200 ppm [2] | mortality at 200 ppm [3] | percent effect (mortality or growth inhibition) at 12.5 ppm [4] | mortality at 12.5 ppm [5] | percent effect (mortality or growth inhibition) at 200 ppm [6] | mortality at 200 ppm [7] | mortality at 24 ppm [8] | percent effect (mortality or growth inhibition) at 200 ppm [9] | percent effect (mortality or growth inhibition) at 200 ppm [10]

CCS(=O)(=O)c1cc(C(C)(C)C#N)cnc1-c1cc2c(cn1)N(CC(F)(F)C(F)(F)F)C(=O)CC2 [P11, 2-[5-ethylsulfonyl-6-[2-oxo-1-(2,2,3,3,3-pentafluoropropyl)-3,4-dihydro-1,7-naphthyridin-6-yl]-3-pyridyl]-2-methyl-propanenitrile]
≥ 80%: mortality at 200 ppm [1] | mortality at 200 ppm [2] | mortality at 200 ppm [3] | percent effect (mortality or growth inhibition) at 12.5 ppm [4] | mortality at 12.5 ppm [5] | percent effect (mortality or growth inhibition) at 200 ppm [6] | mortality at 200 ppm [7] | mortality at 24 ppm [8] | percent effect (mortality or growth inhibition) at 200 ppm [9] | percent effect (mortality or growth inhibition) at 200 ppm [10]

CCS(=O)(=O)c1cc(C2(C#N)CC2)cnc1-c1cc2c(cn1)N(CC(F)(F)F)C(=O)CC2 [P2, 1-[5-ethylsulfonyl-6-[2-oxo-1-(2,2,2-trifluoroethyl)-3,4-dihydro-1,7-naphthyridin-6-yl]-3-pyridyl]cyclopropanecarbonitrile]
≥ 80%: mortality at 200 ppm [1] | mortality at 200 ppm [2] | mortality at 200 ppm [3] | percent effect (mortality or growth inhibition) at 12.5 ppm [4] | mortality at 12.5 ppm [5] | percent effect (mortality or growth inhibition) at 200 ppm [6] | mortality at 200 ppm [7] | mortality at 24 ppm [8] | percent effect (mortality or growth inhibition) at 200 ppm [9] | percent effect (mortality or growth inhibition) at 200 ppm [10]

CCSc1cc(C2(C#N)CC2)cnc1-c1cc2c(cn1)N(CC(F)(F)C(F)(F)F)C(=O)OC2 [P4, 1-[5-ethylsulfanyl-6-[2-oxo-1-(2,2,3,3,3-pentafluoropropyl)-4H-pyrido[3,4-d][1,3]oxazin-6-yl]-3-pyridyl]cyclopropanecarbonitrile]
≥ 80%: mortality at 200 ppm [2] | mortality at 200 ppm [3] | percent effect (mortality or growth inhibition) at 200 ppm [6] | mortality at 200 ppm [7] | mortality at 200 ppm [11] | percent effect (mortality or growth inhibition) at 200 ppm [9] | percent effect (mortality or growth inhibition) at 200 ppm [10]

CCS(=O)(=O)c1cc(C(C)(C)F)cnc1-c1cc2c(cn1)N(CC(F)(F)C(F)(F)F)C(=O)CC2 [P23, 6-[3-ethylsulfonyl-5-(1-fluoro-1-methyl-ethyl)-2-pyridyl]-1-(2,2,3,3,3-pentafluoropropyl)-3,4-dihydro-1,7-naphthyridin-2-one]
≥ 80%: mortality at 200 ppm [2] | percent effect (mortality or growth inhibition) at 12.5 ppm [4] | mortality at 12.5 ppm [5] | mortality at 200 ppm [12] | percent effect (mortality or growth inhibition) at 200 ppm [6] | mortality at 200 ppm [7] | percent effect (mortality or growth inhibition) at 200 ppm [9] | percent effect (mortality or growth inhibition) at 200 ppm [10]

CCS(=O)(=O)c1cc(C2(C#N)CC2)cnc1-c1cc2c(cn1)N(CC(F)(F)C(F)(F)F)C(=O)OC2 [P3, 1-[5-ethylsulfonyl-6-[2-oxo-1-(2,2,3,3,3-pentafluoropropyl)-4H-pyrido[3,4-d][1,3]oxazin-6-yl]-3-pyridyl]cyclopropanecarbonitrile]
≥ 80%: mortality at 200 ppm [1] | mortality at 200 ppm [2] | mortality at 200 ppm [3] | percent effect (mortality or growth inhibition) at 12.5 ppm [4] | mortality at 12.5 ppm [5] | percent effect (mortality or growth inhibition) at 200 ppm [6] | mortality at 200 ppm [7] | percent effect (mortality or growth inhibition) at 200 ppm [9] | percent effect (mortality or growth inhibition) at 200 ppm [10]

CCS(=O)(=O)c1cccnc1-c1cc2c(cn1)N(CC(F)(F)C(F)(F)F)C(=O)CC2 [P1, 6-(3-ethylsulfonyl-2-pyridyl)-1-(2,2,3,3,3-pentafluoropropyl)-3,4-dihydro-1,7-naphthyridin-2-one]
≥ 80%: mortality at 200 ppm [2] | mortality at 200 ppm [3] | percent effect (mortality or growth inhibition) at 12.5 ppm [4] | mortality at 12.5 ppm [5] | percent effect (mortality or growth inhibition) at 200 ppm [6] | mortality at 200 ppm [7] | mortality at 24 ppm [8] | percent effect (mortality or growth inhibition) at 200 ppm [9] | percent effect (mortality or growth inhibition) at 200 ppm [10]

— patent US20240122182A1, “PESTICIDALLY ACTIVE HETEROCYCLIC DERIVATIVES WITH SULFUR CONTAINING SUBSTITUENTS” (SYNGENTA CROP PROTECTION AG, priority 2021, published 2024)
